Test system: HCV 1b-377-neo replicon cells
Assay: HCV Replicon assay, HCV 1b-377-neo replicon cells
Format: cell-based, HCV 1b genotype
Settings: Hepatitis C virus, Table 2, read-out: Range (EC50 against HCV 1b)
Procedure: An HCV Replicon assay was utilized in the present disclosure, and was prepared, conducted and validated as described in commonly owned PCT/US2006/022197 and in O'Boyle et. al. Antimicrob Agents Chemother. 2005 April; 49(4):1346-53.
HCV 1b-377-neo replicon cells were used to test the currently described compound series as well as cells resistant to compound A due to a Y2065H mutation in NS5A (described in application PCT/US2006/022197). The compounds tested were determined to have more than 10-fold less inhibitory activity on cells resistant to compound A than wild-type cells indicating a related mechanism of action between the two compound series. Thus, the compounds of the present disclosure can be effective to inhibit the function of the HCV NS5A protein and are understood to be as effective in combinations as previously described in application PCT/US2006/022197 and commonly owned WO/O4014852. Further, the compounds of the present disclosure can be effective against the HCV 1b genotype. It should also be understood that the compounds of the present disclosure can inhibit multiple genotypes of HCV. […] In one embodiment compounds of the present disclosure are active against the 1a, 1b, 2a, 2b, 3a, 4a, and 5a genotypes.

SMILES	EC50
C[C@@H](c1ncc(-c2ccc(-c3ncc(-c4cnc([C@@H]5CCCN5C(=O)[C@@H](c5ccccc5)N5CCCCC5)[nH]4)cn3)cc2)[nH]1)N(C)C(=O)[C@@H](c1ccccc1)N1CCCCC1 [Example 152j-6, (2R)-N-methyl-2-phenyl-N-((1S)-1-(4-(4-(5-(2-((2S)-1-((2R)-2-phenyl-2-(1-piperidinyl)acetyl)-2-pyrrolidinyl)-1H-imidazol-5-yl)-2-pyrimidinyl)phenyl)-1H-imidazol-2-yl)ethyl)-2-(1-piperidinyl)acetamide]	0.001 to 0.999 nM
CN(C)[C@@H](C(=O)N1CCC[C@H]1c1ncc(-c2ccc(-c3cnc(-c4cnc([C@@H]5CCCN5C(=O)[C@@H](c5ccccc5)N(C)C)[nH]4)cn3)cc2)[nH]1)c1ccccc1 [Example 152j-7, (1R)-2-((2S)-2-(5-(5-(4-(2-((2S)-1-((2R)-2-(dimethylamino)-2-phenylacetyl)-2-pyrrolidinyl)-1H-imidazol-5-yl)phenyl)-2-pyrazinyl)-1H-imidazol-2-yl)-1-pyrrolidinyl)-N,N-dimethyl-2-oxo-1-phenylethanamine]	1 to 99 nM
COC(=O)N[C@@H](C(=O)N1CCC[C@H]1c1ncc(-c2ccc(-c3cnc(-c4cnc([C@@H]5CCCN5C(=O)[C@H](NC(=O)OC)c5ccccc5)[nH]4)cn3)cc2)[nH]1)c1ccccc1 [Example 152j-8, methyl ((1R)-2-((2S)-2-(5-(5-(4-(2-((2S)-1-((2R)-2-((methoxycarbonyl)amino)-2-phenylacetyl)-2-pyrrolidinyl)-1H-imidazol-5-yl)phenyl)-2-pyrazinyl)-1H-imidazol-2-yl)-1-pyrrolidinyl)-2-oxo-1-phenylethyl)carbamate]	0.001 to 0.999 nM
CN(C)[C@@H](C(=O)N1CCC[C@H]1c1ncc(-c2ccc(-c3ccc(-c4cnc([C@@H]5CCCN5C(=O)[C@@H](c5ccccc5)N(C)C)[nH]4)nn3)cc2)[nH]1)c1ccccc1 [Example 152j-9, (1R)-2-((2S)-2-(5-(6-(4-(2-((2S)-1-((2R)-2-(dimethylamino)-2-phenylacetyl)-2-pyrrolidinyl)-1H-imidazol-5-yl)phenyl)-3-pyridazinyl)-1H-imidazol-2-yl)-1-pyrrolidinyl)-N,N-dimethyl-2-oxo-1-phenylethanamine]	1 to 99 nM
COC(=O)N[C@@H](C(=O)N1CCC[C@H]1c1ncc(-c2ccc(-c3ccc(-c4cnc([C@@H]5CCCN5C(=O)[C@H](NC(=O)OC)c5ccccc5)[nH]4)nn3)cc2)[nH]1)c1ccccc1 [Example 152j-10, methyl ((1R)-2-((2S)-2-(5-(6-(4-(2-((2S)-1-((2R)-2-((methoxycarbonyl)amino)-2-phenylacetyl)-2-pyrrolidinyl)-1H-imidazol-5-yl)phenyl)-3-pyridazinyl)-1H-imidazol-2-yl)-1-pyrrolidinyl)-2-oxo-1-phenylethyl)carbamate]	1 to 99 nM
C[C@H](NC(=O)[C@@H](c1ccccc1)N(C)C)c1ncc(-c2ccc(-c3ccc(-c4cnc([C@@H]5CCCN5C(=O)[C@@H](c5ccccc5)N(C)C)[nH]4)cn3)cc2)[nH]1 [Example 152j-11, (2R)-2-(dimethylamino)-N-((1S)-1-(5-(4-(5-(2-((2S)-1-((2R)-2-(dimethylamino)-2-phenylacetyl)-2-pyrrolidinyl)-1H-imidazol-5-yl)-2-pyridinyl)phenyl)-1H-imidazol-2-yl)ethyl)-2-phenylacetamide]	0.001 to 0.999 nM
COC(=O)N[C@@H](C(=O)N[C@@H](C)c1ncc(-c2ccc(-c3ccc(-c4cnc([C@@H]5CCCN5C(=O)[C@H](NC(=O)OC)c5ccccc5)[nH]4)cn3)cc2)[nH]1)c1ccccc1 [Example 152j-12, methyl ((1R)-2-((2S)-2-(5-(6-(4-(2-((1S)-1-(((2R)-2-((methoxycarobnyl)amino)-2-phenylace-tyl)amino)eth-yl)-1H-imidazol-5-yl)phenyl)-3-pyridinyl)-1H-imidazol-2-yl)-1-pyrrolidinyl)-2-oxo-1-phenylethyl)carbamate]	0.001 to 0.999 nM
C[C@H](NC(=O)[C@@H](c1ccccc1)N(C)C)c1ncc(-c2ccc(-c3ccc(-c4cnc([C@@H]5CCCN5C(=O)[C@@H](c5ccccc5)N(C)C)[nH]4)nn3)cc2)[nH]1 [Example 152j-13, (2R)-2-(dimethylamino)-N-((1S)-1-(5-(4-(6-(2-((2S)-1-((2R)-2-(dimethylamino)-2-phenylacetyl)-2-pyrrolidinyl)-1H-imidazol-5-yl)-3-pyridazinyl)phenyl)-1H-imidazol-2-yl)ethyl)-2-phenylacetamide]	1 to 99 nM
COC(=O)N[C@@H](C(=O)N[C@@H](C)c1ncc(-c2ccc(-c3ccc(-c4cnc([C@@H]5CCCN5C(=O)[C@H](NC(=O)OC)c5ccccc5)[nH]4)nn3)cc2)[nH]1)c1ccccc1 [Example 152j-14, methyl ((1R)-2-((2S)-2-(5-(6-(4-(2-((1S)-1-(((2R)-2-((methoxycarobnyl)amino)-2-phenylace-tyl)amino)eth-yl)-1H-imidazol-5-yl)phenyl)-3-pyridazinyl)-1H-imidazol-2-yl)-1-pyrrolidinyl)-2-oxo-1-phenylethyl)carbamate]	1 to 99 nM
COC(=O)N[C@@H](C(=O)N[C@@H](C)c1ncc(-c2ccc(-c3ncc(-c4cnc([C@@H]5CCCN5C(=O)[C@H](NC(=O)OC)c5ccccc5)[nH]4)cn3)cc2)[nH]1)c1ccccc1 [Example 152j-15, methyl ((1R)-2-((2S)-2-(5-(2-(4-(2-((1S)-1-(((2R)-2-((methoxycarbonyl)amino)-2-phenylace-tyl)amino)eth-yl)-1H-imidazol-5-yl)phenyl)-5-pyrimidinyl)-1H-imidazol-2-yl)-1-pyrrolidinyl)-2-oxo-1-phenylethyl)carbamate]	0.001 to 0.999 nM
C[C@H](NC(=O)[C@@H](c1ccccc1)N(C)C)c1ncc(-c2cnc(-c3ccc(-c4cnc([C@@H]5CCCN5C(=O)[C@@H](c5ccccc5)N(C)C)[nH]4)cc3)nc2)[nH]1 [Example 152j-16, (2R)-2-(dimethylamino)-N-((1S)-1-(5-(2-(4-(2-((2S)-1-((2R)-2-(dimethylamino)-2-phenylacetyl)-2-pyrrolidinyl)-1H-imidazol-5-yl)phenyl)-5-pyrimidinyl)-1H-imidazol-2-yl)ethyl)-2-phenylacetamide]	0.001 to 0.999 nM
COC(=O)N[C@@H](C(=O)N[C@@H](C)c1ncc(-c2cnc(-c3ccc(-c4cnc([C@@H]5CCCN5C(=O)[C@H](NC(=O)OC)c5ccccc5)[nH]4)cc3)nc2)[nH]1)c1ccccc1 [Example 152j-17, methyl ((1R)-2-((2S)-2-(5-(4-(5-(2-((1S)-1-(((2R)-2-((methoxycarbonyl)amino)-2-phenylace-tyl)amino)eth-yl)-1H-imidazol-5-yl)-2-pyrimidinyl)phenyl)-1H-imidazol-2-yl)-1-pyrrolidinyl)-2-oxo-1-phenylethyl)carbamate]	0.001 to 0.999 nM
C[C@H](NC(=O)[C@@H](c1ccccc1)N(C)C)c1ncc(-c2cnc(-c3ccc(-c4cnc([C@@H]5CCCN5C(=O)[C@@H](c5ccccc5)N(C)C)[nH]4)cc3)cn2)[nH]1 [Example 152j-18, (2R)-2-(dimethylamino)-N-((1S)-1-(5-(5-(4-(2-((2S)-1-((2R)-2-(dimethylamino)-2-phenylacetyl)-2-pyrrolidinyl)-1H-imidazol-5-yl)phenyl)-2-pyrazinyl)-1H-imidazol-2-yl)ethyl)-2-phenylacetamide]	0.001 to 0.999 nM
COC(=O)N[C@@H](C(=O)N[C@@H](C)c1ncc(-c2cnc(-c3ccc(-c4cnc([C@@H]5CCCN5C(=O)[C@H](NC(=O)OC)c5ccccc5)[nH]4)cc3)cn2)[nH]1)c1ccccc1 [Example 152j-19, methyl ((1R)-2-((2S)-2-(5-(4-(5-(2-((1S)-1-(((2R)-2-((methoxycarbonyl)amino)-2-phenylace-tyl)amino)eth-yl)-1H-imidazol-5-yl)-2-pyrazinyl)phenyl)-1H-imidazol-2-yl)-1-pyrrolidinyl)-2-oxo-1-phenylethyl)carbamate]	0.001 to 0.999 nM
C[C@@H](c1ncc(-c2ccc(-c3ncc(-c4cnc([C@@H]5CCCN5C(=O)[C@@H](c5ccccc5)N(C)C)[nH]4)cn3)cc2)[nH]1)N(C)C(=O)[C@@H](c1ccccc1)N(C)C [Example 152j-20, (2R)-2-(dimethylamino)-N-((1S)-1-(5-(4-(5-(2-((2S)-1-((2R)-2-(dimethylamino)-2-phenylacetyl)-2-pyrrolidinyl)-1H-imidazol-5-yl)-2-pyrimidinyl)phenyl)-1H-imidaozl-2-yl)ethyl)-N-methyl-2-phenylacetamide]	1 to 99 nM
COC(=O)N[C@@H](C(=O)N(C)[C@@H](C)c1ncc(-c2ccc(-c3ncc(-c4cnc([C@@H]5CCCN5C(=O)[C@H](NC(=O)OC)c5ccccc5)[nH]4)cn3)cc2)[nH]1)c1ccccc1 [Example 152j-21, methyl ((1R)-2-((2S)-2-(5-(2-(4-(2-((1S)-1-(((2R)-2-((methoxycarbonyl)amino)-2-phenylacetyl)(methyl)amino)ethyl)-1H-imidazol-5-yl)phenyl)-5-pyrimidinyl)-1H-imidazol-2-yl)-1-pyrrolidinyl)-2-oxo-1-phenylethyl)carbamate]	0.001 to 0.999 nM
COC(=O)N[C@@H](C(=O)N[C@@H](C)c1ncc(-c2ccc(-c3ccc(-c4cnc([C@@H]5CCCN5C(=O)[C@H](NC(=O)OC)c5ccccc5)[nH]4)cc3)nc2)[nH]1)c1ccccc1 [Example 152j-22, methyl ((1R)-2-((2S)-2-(5-(4-(5-(2-((1S)-1-(((2R)-2-((methoxycarbonyl)amino)-2-phenylace-tyl)amino)eth-yl)-1H-imidazol-5-yl)-2-pyridinyl)phenyl)-1H-imidazol-2-yl)-1-pyrrolidinyl)-2-oxo-1-phenylethyl)carbamate]	0.001 to 0.999 nM
